This is an account of results in patent US20250129044A1 (priority 2021, published 2025).

Each structure is given as a SMILES string. Counter-ions that a name gives are not always drawn.

This test deals with sodium channel isoforms (Homo sapiens, UniProt P35498). It counts as cell-based. To be noted: area under the sodium current trace, step from −120 mV to 0 mV, HEK cells. The protocol:
The sodium channel isoforms of interest are stably expressed in Human Embryonic Kidney Cells and the currents that flow through those channels in response to a depolarizing voltage clamp step from −120 mV to 0 mV are measured in the presence of increasing concentrations of the chemical agents. The area under the sodium current trace which correlates to the magnitude of sodium flux through the cell membrane is used to quantify the effects on gating of the channels. Other parameters that are measured in the assay include the peak current, time constant of open state inactivation and the voltage dependence of steady state inactivation properties. The concentration responses are used to determine potency of each chemical agents effects on modulating the sodium channel isoform gating. Such techniques are known to those skilled in the art, and may be developed, using current technologies, into low or medium throughput assays for evaluating compounds for their ability to modulate sodium channel behaviour.
In the case of `CC(C)c1ncc(C(=O)Nc2c(-c3ccccc3F)ccnc2C2CCCN2C)cn1` (racemic) [Example 42, (±)—N-(4-(2-fluorophenyl)-2-(1-methylpyrrolidin-2-yl)pyridin-3-yl)-2-isopropylpyrimidine-5-carboxamide], the “Empirical Emax” value is recorded as “+ (+ indicates a value less than 2.0 μM)”.

As for `CC(C)c1ccc(NC(=O)c2c(-c3ccccc3F)ccnc2C2CCOCC2)cn1` [Example 53, 4-(2-fluorophenyl)-N-(6-isopropylpyridin-3-yl)-2-(tetrahydro-2H-pyran-4-yl)nicotinamide], the “Empirical Emax” value is reported as “++ (++ indicates a value from 2.0 up to 5.0 μM)”.

Regarding `CC(C)c1ncc(C(=O)Nc2c(-c3ccccc3F)ccnc2C2CC3(C2)CC(F)(F)C3)cn1` [Example 19, N-[2-(2,2-difluorospiro[3.3]heptan-6-yl)-4-(2-fluorophenyl)-3-pyridyl]-2-isopropyl-pyrimidine-5-carboxamide], the “Empirical Emax” value was “++ (++ indicates a value from 2.0 up to 5.0 μM)”.

For `CC(C)c1ncc(C(=O)Nc2c(-c3ccccc3F)ccnc2C2CC3(COC3)C2)cn1` [Example 36, N-(4-(2-fluorophenyl)-2-(2-oxaspiro[3.3]heptan-6-yl)pyridin-3-yl)-2-isopropylpyrimidine-5-carboxamide], the “Empirical Emax” value is “+++ (+++ indicates a value from 5.0 up to 7.5 μM)”.

Regarding `CC(C)c1ncc(C(=O)Nc2c(-c3ccccc3F)ccnc2C2CC(F)(F)CCN2C(=O)OC(C)(C)C)cn1` (stereo not drawn) [Example 20, tert-butyl 4,4-difluoro-2-[4-(2-fluorophenyl)-3-[(2-isopropylpyrimidine-5-carbonyl)amino]-2-pyridyl]piperidine-1-carboxylate], the “Empirical Emax” value is on record as “+ (+ indicates a value less than 2.0 μM)”.

Take `O=C(Nc1ccc(Cl)nc1)c1c(-c2ccccc2F)ccnc1C1CCCC1` [Example 49, N-(6-chloropyridin-3-yl)-2-cyclopentyl-4-(2-fluorophenyl)nicotinamide]: the “Empirical Emax” value is recorded as “+ (+ indicates a value less than 2.0 μM)”.

For `CC(C)c1ncc(C(=O)Nc2c(-c3ccccc3)ccnc2C2CCCN2C(=O)OC(C)(C)C)cn1` (racemic) [Example 13, (±)-tert-butyl 2-(3-(2-isopropylpyrimidine-5-carboxamido)-4-phenylpyridin-2-yl)pyrrolidine-1-carboxylate], the “Empirical Emax” value is on record as “+ (+ indicates a value less than 2.0 μM)”.

In the case of `CN(C)c1ncc(C(=O)Nc2c(-c3ccccc3F)ccnc2C2CCC(F)(F)CC2)cn1` [Example 2, N-[2-(4,4-difluorocyclohexyl)-4-(2-fluorophenyl)-3-pyridyl]-2-(dimethylamino)pyrimidine-5-carboxamide], the “Empirical Emax” value is on record as “++++ (++++ indicates a value greater than 7.5)”.

Consider `CC(C)c1ncc(C(=O)Nc2c(-c3ccccc3F)ccnc2C2CCC3(CC2)CC3)cn1` [Example 28, N-[4-(2-fluorophenyl)-2-spiro[2.5]octan-6-yl-3-pyridyl]-2-isopropyl-pyrimidine-5-carboxamide], for which the “Empirical Emax” value is “++ (++ indicates a value from 2.0 up to 5.0 μM)”.

In the case of `O=C(Nc1c(-c2ccccc2F)ccnc1C1CCC(F)(F)CC1)c1cnn(C2CCC2)c1` [Example 1, 1-cyclobutyl-N-[2-(4,4-difluorocyclohexyl)-4-(2-fluorophenyl)-3-pyridyl]pyrazole-4-carboxamide], the “Empirical Emax” value is recorded as “++++ (++++ indicates a value greater than 7.5)”.

For the compound `CC(C)c1ncc(C(=O)Nc2c(C3=CCCCO3)ccnc2C2CCC(F)(F)CC2)cn1` [Example 54, N-(2-(4,4-difluorocyclohexyl)-4-(3,4-dihydro-2H-pyran-6-yl)pyridin-3-yl)-2-isopropylpyrimidine-5-carboxamide], the “Empirical Emax” value was “++++ (++++ indicates a value greater than 7.5)”.

For `CC(C)c1ncc(C(=O)Nc2c(-c3ccccc3F)ccnc2[C@H]2CC[C@H](C(F)(F)F)CC2)cn1` [Example 30, N-[4-(2-fluorophenyl)-2-[4-(trifluoromethyl)cyclohexyl]-3-pyridyl]-2-isopropyl-pyrimidine-5-carboxamide], the “Empirical Emax” value is listed as “++ (++ indicates a value from 2.0 up to 5.0 μM)”.

As for `CC(C)c1ncc(C(=O)Nc2c(-c3ccccc3F)ccnc2C2CCCCC2)cn1` [Example 17, N-[2-cyclohexyl-4-(2-fluorophenyl)-3-pyridyl]-2-isopropyl-pyrimidine-5-carboxamide], the “Empirical Emax” value is “+++ (+++ indicates a value from 5.0 up to 7.5 μM)”.

Regarding `O=C(Nc1c(-c2cc(F)ccc2F)ccnc1C1CCC(F)(F)CC1)c1cnc(N2C3CCCC2CC3)nc1` [Example 165, 2-(8-azabicyclo[3.2.1]octan-8-yl)-N-(2-(4,4-difluorocyclohexyl)-4-(2,5-difluorophenyl)pyridin-3-yl)pyrimidine-5-carboxamide], the EC50 (in general, the concentration giving half of the maximal effect) was below 1 µM.

For the compound `CC(C)c1ncc(C(=O)Nc2c(-c3ccccc3F)ccnc2[C@H]2CC[C@@H](F)CC2)cn1` [Example 33], the “Empirical Emax” value is on record as “+++ (+++ indicates a value from 5.0 up to 7.5 μM)”.

Take `CC(C)c1ncc(C(=O)Nc2c(-c3ccccc3)ccnc2C23CCOCC2C3)cn1` (racemic) [Example 12, (±)—N-(2-(3-oxabicyclo[4.1.0]heptan-6-yl)-4-phenylpyridin-3-yl)-2-isopropylpyrimidine-5-carboxamide]: the “Empirical Emax” value was “+ (+ indicates a value less than 2.0 μM)”.

On to `CC(C)c1ncc(C(=O)Nc2c(-c3ccccc3F)ccnc2[C@H]2CC[C@](O)(C(F)(F)F)CC2)cn1` [Example 21, N-[4-(2-fluorophenyl)-2-[4-hydroxy-4-(trifluoromethyl)cyclohexyl]-3-pyridyl]-2-isopropyl-pyrimidine-5-carboxamide], for which the “Empirical Emax” value is reported as “+ (+ indicates a value less than 2.0 μM)”.

With `COC1CCN(C(=O)Nc2c(-c3ccccc3F)ccnc2C2CCC(F)(F)CC2)CC1` [Example 5, N-[2-(4,4-difluorocyclohexyl)-4-(2-fluorophenyl)-3-pyridyl]-4-methoxy-piperidine-1-carboxamide], the “Empirical Emax” value is recorded as “+++ (+++ indicates a value from 5.0 up to 7.5 μM)”.

Take `CC(C)c1ncc(C(=O)Nc2c(-c3ccccc3F)ccnc2C2C[C@@H]3[C@H](C2)C3(F)F)cn1` (stereo partly drawn) [Example 23, N-[2-[(1R,5S)-6,6-difluoro-3-bicyclo[3.1.0]hexanyl]-4-(2-fluorophenyl)-3-pyridyl]-2-isopropyl-pyrimidine-5-carboxamide]: the “Empirical Emax” value is reported as “++++ (++++ indicates a value greater than 7.5)”.

Regarding `CC(C)c1ncc(C(=O)Nc2c(-c3ccccc3F)ccnc2C2CC(F)(F)CCN2)cn1` (racemic) [Example 41, (±)—N-[2-(4,4-difluoro-2-piperidyl)-4-(2-fluorophenyl)-3-pyridyl]-2-isopropyl-pyrimidine-5-carboxamide hydrochloric acid salt], the “Empirical Emax” value is “++ (++ indicates a value from 2.0 up to 5.0 μM)”.

With `Fc1ccc(F)c(-c2ccnc(C3CCC(F)(F)CC3)c2-c2nc3c([nH]2)COCC3)c1` [Example 47, 2-(2-(4,4-difluorocyclohexyl)-4-(2,5-difluorophenyl)pyridin-3-yl)-3,4,6,7-tetrahydropyrano[3,4-d]imidazole], the “Empirical Emax” value is recorded as “+++ (+++ indicates a value from 5.0 up to 7.5 μM)”.

Regarding `CC(C)c1ncc(C(=O)Nc2c(-c3ccccc3)ccnc2C2CCOCC2)cn1` [Example 10, 2-isopropyl-N-(4-phenyl-2-(tetrahydro-2H-pyran-4-yl)pyridin-3-yl)pyrimidine-5-carboxamide], the “Empirical Emax” value is “++ (++ indicates a value from 2.0 up to 5.0 μM)”.

As to `CC(C)c1ncc(C(=O)Nc2c(-c3ccccc3F)ccnc2C2CCOCC2)cn1` [Example 14, N-(4-(2-fluorophenyl)-2-(tetrahydro-2H-pyran-4-yl)pyridin-3-yl)-2-isopropylpyrimidine-5-carboxamide], the “Empirical Emax” value was “+++ (+++ indicates a value from 5.0 up to 7.5 μM)”.

As to `CC(C)c1ncc(C(=O)Nc2c(-c3ccccc3F)ccnc2C2CCC(F)(F)CC2)cn1` [Example 15, N-[2-(4,4-difluorocyclohexyl)-4-(2-fluorophenyl)-3-pyridyl]-2-isopropyl-pyrimidine-5-carboxamide], the “Empirical Emax” value is “++++ (++++ indicates a value greater than 7.5)”.

As to `O=C(Nc1ccc(Cl)nc1)c1c(-c2ccccc2F)ccnc1C1=CCOCC1` [Example 51], the “Empirical Emax” value is reported as “+ (+ indicates a value less than 2.0 μM)”.

Compound `O=C(Nc1c(-c2cc(F)ccc2F)ccnc1C1CCC(F)(F)CC1)c1cnc(N2C3CCC2COC3)nc1` [Example 159, 2-(3-oxa-8-azabicyclo[3.2.1]octan-8-yl)-N-(2-(4,4-difluorocyclohexyl)-4-(2,5-difluorophenyl)pyridin-3-yl)pyrimidine-5-carboxamide] had an EC50 below 1 µM.

For `FC1(F)CCC(c2nccc(-c3ccccc3)c2-c2nc3c([nH]2)COCC3)CC1` [Example 46, 2-(2-(4,4-difluorocyclohexyl)-4-phenylpyridin-3-yl)-3,4,6,7-tetrahydropyrano[3,4-d]imidazole], the “Empirical Emax” value is listed as “+++ (+++ indicates a value from 5.0 up to 7.5 μM)”.

With `CO[C@H]1CC[C@H](c2nccc(-c3ccccc3F)c2NC(=O)c2cnc(C(C)C)nc2)CC1` [Example 39], the “Empirical Emax” value is recorded as “+ (+ indicates a value less than 2.0 μM)”.

As for `CC(C)c1ncc(C(=O)Nc2c(-c3ccccc3F)ccnc2C2CCC(F)(F)C2)cn1` (stereo not drawn) [Example 24, N-[2-(3,3-difluorocyclopentyl)-4-(2-fluorophenyl)-3-pyridyl]-2-isopropyl-pyrimidine-5-carboxamide], the “Empirical Emax” value is given as “++++ (++++ indicates a value greater than 7.5)”.

With `CC(C)c1ncc(C(=O)Nc2c(-c3ccccc3F)ccnc2C2CCCOC2)cn1` (stereo not drawn) [Example 16, N-[4-(2-fluorophenyl)-2-tetrahydropyran-3-yl-3-pyridyl]-2-isopropyl-pyrimidine-5-carboxamide], the “Empirical Emax” value is “++ (++ indicates a value from 2.0 up to 5.0 μM)”.
